Test results taken from paper PMC5382548 (Scientific Reports, 2015).

Columns and labels:
[1] = system: KRAS21R (FRET-labelled) (DNA, G4) AGGGCGGTGTGGGAAGAGGGA; test: FRET melting; conditions: 60 mM K+; K-cacodylate pH 7.4; 0.2 μM DNA, 1 μM compound; SD ≤ 0.2
[2] = system: UTR-1 G4 in the 5′UTR of KRAS mRNA; test: FRET melting assay, UTR-1 RNA G4; assay type: binding; conditions: G4 0.2 μM, ligand 1 μM
Method: (§1) Two compounds 2d and 3e were selected and evaluated for their ability to stabilize the 32-mer sequence in the NHE of the human KRAS promoter (KRAS32R)[12], two G4 motifs in the 5′UTR of KRAS mRNA (UTR-1 and UTR-2)[24] and a 21-mer DNA G4 from the human telomeric sequence (F21T). The KRAS32R sequence has been described as forming two G4 structures which exist in equilibrium. One sequence folds into a G4 (Q1) with a Tm of ~55°C that is disrupted on increasing the temperature and then, the full-length 32-mer sequence folds into a new G4 (Q2, Tm of ~72°C)[13]. In our assay, the KRAS32R sequence (in the presence or absence of IQcs) folded in a single G4 structure (Tm ≈ 54°C), as shown by the single inflection for the first derivative of the FRET melting data (Sup. Inf.; Figure S4). This monophasic behaviour was also observed in the presence of TMPyP4[13].
(§2) Oligonucleotide sequences were purchased from Eurofins MWG Synthesis GmbH, Germany or STAB VIDA Genomics Lab, Caparica, Lisbon, Portugal. […]
(§3) The ability of indolo[3,2-c]quinolines to stabilize DNA sequences was investigated using a Fluorescence Resonance Energy Transfer (FRET) assay as reported elsewhere.

[3] = system: KRAS21R (DNA, G4) AGGGCGGTGTGGGAAGAGGGA; test: spectrofluorimetric titration, one-site Hill slope fit; conditions: 60 mM K+, K-cacodylate pH 7.4, 25 °C, 1 μM compound, apparent, SD ≤ 0.2 × 10^6
[4] = system: UTR-2 G4 in the 5′UTR of KRAS mRNA; test: FRET melting assay, UTR-2 RNA G4; assay type: binding; conditions: G4 0.2 μM, ligand 1 μM
Method: as §1, §2, §3

[5] = system: 26ds (ds26) (DNA, duplex) CAATCGGATCGAATTCGATCCGATTG; test: spectrofluorimetric titration, one-site Hill slope fit; conditions: 60 mM K+, K-cacodylate pH 7.4, 25 °C, 1 μM compound, apparent, SD ≤ 0.2 × 10^6
[6] = system: KRAS32R (DNA, G4) AGGGCGGTGTGGGAAGAGGGAAGAGGGGGAGG; test: FRET melting; conditions: 60 mM K+; K-cacodylate pH 7.4; 0.2 μM DNA, 1 μM compound; SD ≤ 0.2

With `Cn1cc2c3ccccc3nc-2c2cc(Br)ccc21` [2a, 2-bromo-5-methyl-indolo[3,2-c]quinoline] the binding [1] was “weak”.

`CCN(CC)CCCNc1ccc2c(c1)c1[nH]c3ccccc3c1c[n+]2C` [2d] was tested, and the “ΔTm UTR-1” value [2] was 5.1 °C, the Ka ([3]; Hill 2.0) was 4.4e+06 M⁻¹ and the “ΔTm UTR-2” value [4] was 2.0 °C. The Ka ([5]; Hill 1.5) was 2.8e+06 M⁻¹ and the ΔTm [6] was 10.7 °C.

In the case of `CCN(CC)CCCNc1ccc2c(c1)[nH]c1c2c[n+](C)c2ccc(NCCCN(CC)CC)cc12.[Cl-]` [3e], the binding [1] is reported as “yes”, the “ΔTm UTR-1” value [2] is reported as 15.7 °C and the Ka ([3]; Hill 2.4) is reported as 8.6e+06 M⁻¹. For the same molecule, the “ΔTm UTR-2” value [4] was 9.9 °C, the Ka ([5]; Hill 2.5) was 3.2e+06 M⁻¹ and the ΔTm [6] was 17.0 °C.
